Our source for the IC50 values is ChEMBL document CHEMBL1136647, “Visual detection of AMP and real-time monitoring of cyclic nucleotide phosphodiesterase (PDE) activity in neutral aqueous solution. Chemosensor-coupled assay of PDE and PDE inhibitors” (Bioorg Med Chem Lett, 2003).

pIC50: −log10 of the molar value.

This test is described as follows: Inhibitory concentration against phosphodiesterase from bovine heart.

The term pIC50 denotes the IC50 on a negative log10 scale, so that one unit is a factor of ten. Read a low pIC50 as a high IC50. The molecule `CC(C)Cn1c(=O)n(C)c(=O)c2nc[nH]c21` [ISOBUTYLMETHYLXANTHINE] gave a pIC50 of 4.44.
